# Measurements from patent US20180273528A1 (LES LABORATOIRES SERVIER, priority 2015, published 2018).
# Legend:
# [1] = molecular target: DYRK1A (Homo sapiens, UniProt Q13627); test: Cellular DYRK1 autophosphorylation assay in U2-OS cells; type: cell-based; design: full-length, wild-type human DYRK1A (NM_001396) with an HA tag; expressed in transfected cells; host or cells: human U2-OS osteosarcoma cells, transient transfection of a pcDNA3.1 plasmid; details: U2-OS cells transfected with HA-tagged human DYRK1A, 5 hours exposure; read-out: IC50 (μM) P-Ser520-Dyrk1A -Cell assay
# Procedure: On day 2, cells were exposed to a range of concentrations of the test compounds of the invention for 5 hours. […] The relative levels of phospho-Ser520-DYRK1A were assayed using either western blotting or the Mesoscale ELISA platform. For analysis by western blot, lysates were diluted into Laemmli sample buffer (Bio-Rad) containing 5% v/v β-mercaptoethanol, heated for 5 min at 95° C., and resolved on Tris-glycine gels or NuPage Bis-Tris gels (Novex; Invitrogen). Biotinylated molecular weight standards (Cell Signaling Technology) were included in all gels. Proteins were transferred to nitrocellulose membranes (Hybond, ECL; Amersham), which were blocked in Tris-buffered saline/0.1% tween 20 (TBST) containing 5% milk, and probed at 4° C. overnight with anti-phospho-Ser520-DYRK1A antibody (Eurogentec SE6974-75; 0.23 μg/ml in 5% BSA) or anti DYRK1A antibody (Abnova H00001859; 0.5 μg/ml in 5% milk). Peroxidase-conjugated secondary antibodies were diluted into 5% milk and applied to membranes for 1 h at 20° C. Chemiluminescence detection was performed using the ECL plus western blotting detection kit (Amersham) and was recorded on ECL plus hyperfilm (Amersham). Blots were scanned using the Bio-Rad GS-800 calibrated densitometer and quantitative analysis of western blots was performed using TotalLab software (Amersham). IC50 values for inhibition of phospho-Ser520-DYRK1A were calculated from dose-response curves plotting the ratio between phospho-Ser520-DYRK1A and total DYRK1A signals at each concentration. […] Anti-phospho-Ser520-DYRK1A antibody (Eurogentec SE6974-75; […]) and anti DYRK1A antibody (Abnova H00001859; 3 μg/ml) was then added for 1 hour at RT, followed by addition of Sulfa-TAG anti-rabbit detection antibody (ref MSD R32AB; 1 μg/ml) and Sulfa-TAG anti-mouse detection antibody (ref MSD R32-AC-1; 1 μg/ml). After a further 1 hour, Read Buffer was added and plates were read on the Sector Imager 2400 (Mesoscale). IC50 values for inhibition of phospho-Ser520-DYRK1A were calculated from dose-response curves.
# [2] = molecular target: T1, His-TEV-DYRK1A Kinase domain (aa127-485) (Homo sapiens, UniProt Q13627); test: Kinase ADP assay (ADP Hunter), DYRK1A kinase domain; type: biochemical; details: 20 μM ATP
# T1 construct: His-TEV-DYRK1A Kinase domain (aa127-485); His tag (N); TEV protease cleavage site (N)
# Procedure: The enzyme reaction was conducted in assay buffer (pH 7.4), containing 15 mM Hepes; 20 mM NaCl; 1 mM EGTA; 10 mM MgCl2; 0.02% Tween20 and 0.1 mg/ml Bovine-y-globulin. Test compounds of the invention were added in reaction buffer in a range of concentrations for 10 minutes at 30° C. in the presence of 20 nM DYRK1A enzyme, 40 μM peptide substrate and 20 μM ATP. Detection reagents (DiscoveRx 90-0083), ADP Hunter Plus Reagent A and then ADP Hunter Plus Reagent B were added. After a following 20 minutes incubation at 30° C., ADP Hunter Plus Stop Solution was added. The fluorescence intensity was measured at 590 nm.
Structure (SMILES),IC50 [1] [µM],IC50 [2] [µM]
"COc1cccc(O[C@H](C)Cn2c(C)nc3ccc(-c4cc(N)nc(N)c4)nc32)c1 (single isomer, unassigned) [Example 126]",0.271,0.055
"Cc1nc2ccc(-c3cc(N)nc(N)c3)nc2n1C[C@H](C)Oc1ccc(F)cc1 (single isomer, unassigned) [Example 129]",0.13,0.037
"Cc1ccccc1O[C@H](C)Cn1c(C)nc2ccc(-c3cc(N)nc(N)c3)nc21 (single isomer, unassigned) [Example 132]",0.207,0.038
"CCCCc1nc2ccc(-c3cc(N)nc(N)c3)nc2n1CCOc1ccccc1 [Example 146, 4-[2-butyl-3-(2-phenoxyethyl)-3H-imidazo[4,5-b]pyridin-5-yl]pyridine-2,6-diamine]",,0.089
"CCc1nc2ccc(-c3cc(N)nc(N)c3)nc2n1C [Example 159, 4-(2-ethyl-3-methyl-3H-imidazo[4,5-b]pyridin-5-yl)pyridine-2,6-diamine]",,0.043
"CCCc1nc2ccc(-c3cc(N)nc(N)c3)nc2n1CCOc1ccccc1 [Example 162, 4-[3-(2-phenoxyethyl)-2-propyl-3H-imidazo[4,5-b]pyridin-5-yl]pyridine-2,6-diamine]",,0.056
"Cc1nc2ccc(-c3cc(N)nc(N)c3)nc2n1CCOc1ncccc1Br [Example 169, 4-(3-{2-[(3-bromopyridin-2-yl)oxy]ethyl}-2-methyl-3H-imidazo[4,5-b]pyridin-5-yl)pyridine-2,6-diamine]",,0.055
Cc1nc2ccc(-c3cc(N)nc(N)c3)nc2n1C[C@@H](C)Oc1ccc(Br)cn1 [Example 187],,0.082
"Cc1nc2ccc(-c3cc(N)nc(N)c3)nc2n1CCOc1ccccc1Cl [Example 204, 4-{3-[2-(2-chlorophenoxy)ethyl]-2-methyl-3H-imidazo[4,5-b]pyridin-5-yl}pyridine-2,6-diamine]",,0.041
"COc1ccc(C)cc1OCCn1c(C)nc2ccc(-c3cc(N)nc(N)c3)nc21 [Example 211, 4-{3-[2-(2-methoxy-5-methylphenoxy)ethyl]-2-methyl-3H-imidazo[4,5-b]pyridin-5-yl}pyridine-2,6-diamine]",,0.049
"Cc1nc2ccc(-c3cc(N)nc(N)c3)nc2n1CCOc1ccccc1OC(C)C [Example 214, 4-(2-methyl-3-{2-[2-(propan-2-yloxy)phenoxy]ethyl}-3H-imidazo[4,5-b]pyridin-5-yl)pyridine-2,6-diamine]",,0.072
"CCOc1ccccc1OCCn1c(C)nc2ccc(-c3cc(N)nc(N)c3)nc21 [Example 215, 4-{3-[2-(2-ethoxyphenoxy)ethyl]-2-methyl-3H-imidazo[4,5-b]pyridin-5-yl}pyridine-2,6-diamine]",,0.066
"Cc1nc2ccc(-c3cc(N)nc(N)c3)nc2n1CCOc1ccnn1C [Example 218, 4-(2-methyl-3-{2-[(1-methyl-1H-pyrazol-5-yl)oxy]ethyl}-3H-imidazo[4,5-b]pyridin-5-yl)pyridine-2,6-diamine]",,0.057
"Cc1nc2ccc(-c3cc(N)nc(N)c3)nc2n1CCOc1ncccn1 [Example 219, 4-{2-methyl-3-[2-(pyrimidin-2-yloxy)ethyl]-3H-imidazo[4,5-b]pyridin-5-yl}pyridine-2,6-diamine]",,0.04
"C=CCCn1c(C)nc2ccc(-c3ccnc(N)c3)nc21 [Example 239, 4-[3-(but-3-en-1-yl)-2-methyl-3H-imidazo[4,5-b]pyridin-5-yl]pyridin-2-amine]",,0.068
"Cc1nc2ccc(-c3cc(F)nc(N)c3F)nc2n1C1CC1 [Example 241, 4-(3-cyclopropyl-2-methyl-3H-imidazo[4,5-b]pyridin-5-yl)-3,6-difluoropyridin-2-amine]",,0.098
"Cc1nc2ccc(-c3c(F)c(N)nc(N)c3F)nc2n1C1CC1 [Example 242, 4-(3-cyclopropyl-2-methyl-3H-imidazo[4,5-b]pyridin-5-yl)-3,5-difluoropyridine-2,6-diamine]",,0.154

# Continued by falling IC50 [2], values first:
IC50 [1] [µM],IC50 [2] [µM],Structure (SMILES)
0.163,0.037,"Cc1cccc(O[C@H](C)Cn2c(C)nc3ccc(-c4cc(N)nc(N)c4)nc32)c1 (single isomer, unassigned) [Example 128]"
,0.033,"CCCc1nc2ccc(-c3cc(N)nc(N)c3)nc2n1C [Example 163, 4-(3-methyl-2-propyl-31-imidazo[4,5-b]pyridin-5-yl)pyridine-2,6-diamine]"
,0.03,"Cc1ccccc1OCCn1c(C)nc2ccc(-c3cc(N)nc(N)c3)nc21 [Example 205, 4-{2-methyl-3-[2-(2-methylphenoxy)ethyl]-3H-imidazo[4,5-b]pyridin-5-yl}pyridine-2,6-diamine]"
,0.029,"Cc1nc2ccc(-c3cc(N)nc(N)c3)nc2n1CCOc1cccnc1 [Example 216, 4-{2-methyl-3-[2-(pyridin-3-yloxy)ethyl]-3H-imidazo[4,5-b]pyridin-5-yl}pyridine-2,6-diamine]"
,0.025,"COc1ccc(OCCn2c(C)nc3ccc(-c4cc(N)nc(N)c4)nc32)cc1 [Example 209, 4-{3-[2-(4-methoxyphenoxy)ethyl]-2-methyl-3H-imidazo[4,5-b]pyridin-5-yl}pyridine-2,6-diamine]"
0.151,0.022,"COc1cccc(O[C@@H](C)Cn2c(C)nc3ccc(-c4cc(N)nc(N)c4)nc32)c1 (single isomer, unassigned) [Example 125]"
,0.021,"CCCCc1nc2ccc(-c3cc(N)nc(N)c3)nc2n1C [Example 147, 4-(2-butyl-3-methyl-3H-imidazo[4,5-b]pyridin-5-yl)pyridine-2,6-diamine]"
,0.021,"Cc1cccc(OCCn2c(C)nc3ccc(-c4cc(N)nc(N)c4)nc32)c1 [Example 201, 4-{2-methyl-3-[2-(3-methylphenoxy)ethyl]-3H-imidazo[4,5-b]pyridin-5-yl}pyridine-2,6-diamine]"
0.122,0.02,"Cc1nc2ccc(-c3cc(N)nc(N)c3)nc2n1C[C@H](C)N(C)c1ccccc1 (single isomer, unassigned) [Example 122]"
0.045,0.016,"Cc1ccccc1O[C@@H](C)Cn1c(C)nc2ccc(-c3cc(N)nc(N)c3)nc21 (single isomer, unassigned) [Example 131]"
0.243,0.01,"Cc1nc2ccc(-c3cc(N)nc(N)c3)nc2n1CC1Cc2ccccc21 (single isomer, unassigned) [Example 113, 4-[3-(bicyclo[4.2.0]octa-1,3,5-trien-7-ylmethyl)-2-methyl-3H-imidazo[4,5-b]pyridin-5-yl]pyridine-2,6-diamine]"
0.082,0.01,"Cc1nc2ccc(-c3cc(N)nc(N)c3)nc2n1C[C@H](C)Oc1cccc(F)c1 (single isomer, unassigned) [Example 123]"
0.041,0.008,"Cc1nc2ccc(-c3cc(N)nc(N)c3)nc2n1C[C@@H](C)N(C)c1ccccc1 (single isomer, unassigned) [Example 121]"
0.075,0.006,"Cc1nc2ccc(-c3cc(N)nc(N)c3)nc2n1C[C@H](C)Oc1ccccc1Cl (single isomer, unassigned) [Example 117]"
0.061,0.006,"Cc1nc2ccc(-c3cc(N)nc(N)c3)nc2n1C[C@@H](C)Oc1cccc(F)c1 (single isomer, unassigned) [Example 124]"
0.105,0.004,"CC[C@@H](Cn1c(C)nc2ccc(-c3cc(N)nc(N)c3)nc21)Oc1ccccc1 (single isomer, unassigned) [Example 119]"
0.161,0.003,"CC[C@H](Cn1c(C)nc2ccc(-c3cc(N)nc(N)c3)nc21)Oc1ccccc1 (single isomer, unassigned) [Example 120]"
